The results in this text go back to patent publication US9802996B2, “Glycosylated polypeptide and drug composition containing said polypeptide” (Glytech, Inc., priority 2011, dated 2017).

The test system of data set [1] is growth hormone (GH) production. In words: GH production suppression test with rats.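 For all read-outs here: plasma GH measured by EIA in blood drawn 5 min after intravenous GRF stimulus, given 1 h after compound dosing, compared against saline-treated vehicle rats.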 The data set is classed as in vivo. The settings on record: for GH production suppression activity: administration of 10 or 100 nmol/kg.
Description: This experimental line was carried out as a test line that can evaluate the pharmacological action of the glycosylated form on SSTR and its residence in blood after administration, with blood GH production amount as an indicator.
Moreover, GRF (GH releasing hormone, Growth hormone releasing factor) was used as the GH release enhancer. […] As heparin employed as the anticoagulant when collecting blood, Japanese Pharmacopeia heparin sodium injectable solution (Lot. B084, from Mochida Pharmaceutical Co., Ltd.) was used directly as stock solution.
As the control group, saline without glycosylated polypeptide was similarly administered (vehicle group). […] One hour after administration of the glycosylated form, i.e. after 50 minutes or more had passed under anesthesia, GRF was administered as the GH release enhancer to the tail vain at a dosage of 1 mL/kg with a glass syringe and an injection needle. Five minutes after administration of GRF, blood was collected from the rat cervical vein with a glass syringe containing heparin and an injection needle. 0.4 mL of the collected blood was left on ice for 20 minutes or more, then centrifuged (1,870×g, 4° C., 10 minutes), and 100 μL of the supernatant was taken as the plasma sample. As blank plasma, plasma obtained by similarly treating the blood collected from untreated rat cervical vein was employed. Plasma samples were frozen in storage until employed for measurement.
Measurement of GH concentration in the plasma sample obtained in the above 89-2 was performed with rat Growth Hormone EIA kit from SPI-Bio (SPI-Bio, A05104). The plasma sample was diluted with the assay buffer supplied in the EIA kit to 20, 100, and 500-folds as measurement samples. […] By multiplying the results obtained and the dilution ratio, the GH concentration was calculated.
Data set [2] deals with rat gastrointestinal obstruction model. As to the kind of experiment: Drug effect test in gastrointestinal obstruction model: intestinal fluid weight. The data set is classed as in vivo, rats. The settings on record: for Intestinal fluid weight: jejunum wet weight-dry weight, 40 μM solution 1 mL/kg subcutaneous 18 h after surgery, one hour after administration; for intestinal fluid weight compared to the vehicle: rats, subcutaneous 40 nmol/kg, 1 hour after administration.
Excerpt: Anesthesia was introduced with inhalation of 2% isoflurane and laughing gas:oxygen=7:3, and this was maintained throughout the surgery. A median incision was made in the abdomen, and the jejunum at about 10 cm from the musculus suspensorius duodeni was ligated with a surgical suture. Then, the incision site was promptly sutured, and the rats were fasted until compound administration. In the sham treatment group, ligation of the jejunum was not performed, but the treatment of suturing the incision site after a median incision was made in the abdomen was performed.
(§1) Eighteen hours after the gastrointestinal obstruction surgery, this was subcutaneously administered into the dorsal cervix at a dosage of 1 mL/kg with a glass syringe and a 25 G injection needle (all from Terumo Corporation). As the vehicle group, saline without glycosylated polypeptide was similarly administered.
One hour after compound administration, a median incision was made in the abdomen under inhalation anesthesia, and 1.5 mL of blood was collected from the abdominal vena cava. Then, the ligated jejunum on the musculus suspensorius duodeni side was resected. The fluid and blood on the jejunum surface were removed with a paper towel, nerves, blood vessels, and fat attached to the jejunum was removed, this was cut into 6 cm lengths, and wet weight was measured. This was then dried at 36 degrees for 24 hours, and dry weight was measured. The intestinal fluid weight (mg) was calculated by wet weight-dry weight.

For data set [3] the test system is unchanged. As to the kind of experiment: Gastrointestinal obstruction model: blood parameters (amylase, LDH, CPK). The data set is classed as in vivo, rats. The settings on record: for Amylase / CPK / LDH: rat gastrointestinal obstruction model, blood collected 1 hour after subcutaneous administration of 40 μM solution at 1 mL/kg, 18 hours after surgery; for amylase activity compared to the vehicle / LDH activity compared to the vehicle: rats, blood 1 hour after administration.
Description: This experimental line was carried out as a test line to evaluate the promotion of intestinal fluid absorption or the secretory suppressing action, using the change in the intestinal fluid weight in the jejunum after bowel obstruction as an indicator. Moreover, blood parameters of deviation enzymes amylase (pancreas), lactate dehydrogenase (LDH, liver), and creatine phosphokinase (CPK, skeletal muscle, cardiac muscle etc.) were measured as indicators of tissue disorders.
The present test was consigned to Mitsubishi Chemical Medience Corporation and carried out. […] Anesthesia was introduced with inhalation of 2% isoflurane and laughing gas:oxygen=7:3, and this was maintained throughout the surgery. A median incision was made in the abdomen, and the jejunum at about 10 cm from the musculus suspensorius duodeni was ligated with a surgical suture. Then, the incision site was promptly sutured, and the rats were fasted until compound administration. In the sham treatment group, ligation of the jejunum was not performed, but the treatment of suturing the incision site after a median incision was made in the abdomen was performed.
as §1
One hour after compound administration, a median incision was made in the abdomen under inhalation anesthesia, and 1.5 mL of blood was collected from the abdominal vena cava.
The measuring methods employed were BG5B, UV-rate, and JSCC methods, respectively.

Data set [4] relates to SSTR1-SSTR5. As to the kind of experiment: Competitive binding assay, statements over all receptors. More on the design: species or system Human. The settings on record: Example 69-1, range over SSTR1-SSTR5.
A short description of data set [5]: Pharmacokinetics test with rats (intravenous and subcutaneous administration).
Description: 0.2 mL of the collected blood was promptly mixed with 0.2 mL of the aprotinin-containing EDTA-PBS solution prepared in the above 70-1, and left on ice for 30 minutes or more. […] As blank plasma, plasma obtained by similarly treating the blood collected from untreated rat cervical vein was employed. Plasma samples were frozen in storage until employed for measurement.
The standard solution for creating a standard curve was prepared as follows. First, the blank plasma obtained in the above 70-2 was diluted with the assay buffer supplied in the EIA kit similarly to the plasma sample, and this was used as the assay buffer for standard solution preparation (for example, when diluting the plasma sample to 100-fold, 1/100 amount of blank plasma was added to the assay buffer supplied in the EIA kit, and this was used as the assay buffer for standard solution preparation).
Moreover, the predicted initial concentration (C0) was determined by the extrapolation method for intravenous administration, t1/2 and MRT were calculated, and the maximum plasma concentration (Cmax) was determined from the actual value for subcutaneous administration.
Moreover, the parameters obtained were employed to calculate bioavailability from the following mathematical formula. BA (%)=(AUC(sc)/Dose(sc))/(AUC(iv)/Dose(iv))
AUC(sc): AUC for subcutaneous administration (min·nM)
Dose(sc): Administration dose for subcutaneous administration (nmol/kg)
AUC(iv): AUC for intravenous administration (min·nM)
Dose(iv): Administration dose for intravenous administration (nmol/kg)
The mark [6] stands for this setting: Table 7, plasma GH, dose 1 nmol/kg subcutaneous, GRF 1 hour after administration, blood 5 min after GRF.
The mark [7] stands for this setting: Table 7, plasma GH, dose 10 nmol/kg subcutaneous, GRF 1 hour after administration, blood 5 min after GRF.
The mark [8] stands for this setting: Table 8, plasma GH, dose 1 nmol/kg.
[9] abbreviates: Table 8, plasma GH, dose 3 nmol/kg.
The mark [10] stands for this setting: Table 8, plasma GH, dose 10 nmol/kg.
[11] abbreviates: Table 8, plasma GH, dose 30 nmol/kg.
Where [12] appears, read: Table 8, plasma GH, dose 100 nmol/kg.
Setting [13] is: intravenous administration, Table 5A.
The mark [14] stands for this setting: subcutaneous administration, Table 5A.

In the case of N5C(disialo)-SRIF28 [Example 2], the “GH production suppression effect” value in data set [1] (rats, subcutaneous, 10 nmol/kg) is on record as 95-99%.

With R13C(disialo)-SRIF28 [Example 5], the “GH production suppression activity” value in data set [1] (rats) is “showed GH production suppression activity”.

Consider K14C(disialo)-SRIF28 [Example 6], for which the “GH production suppression activity” value in data set [1] (rats) is “showed GH production suppression activity”.

Consider S1C(monosialo)-SRIF28 [Example 26], for which the “GH production suppression effect” value in data set [1] (rats, subcutaneous, 10 nmol/kg) was 70-99%.

For the compound S1C(disialo)-SRIF28 [Example 1], in data set [2], the “Intestinal fluid weight” value worked out at 630 ± 83 mg. The “intestinal fluid weight compared to the vehicle” value in data set [2] is listed as “increase in the intestinal fluid weight compared to the vehicle”. The Amylase in data set [3] is recorded as 1164 ± 224 IU/L. The compound also showed a CPK in data set [3] of 455 ± 202 IU/L. This compound displayed an LDH in data set [3] of 338 ± 97 IU/L. In data set [3], the “amylase activity compared to the vehicle” value is “low value compared to the vehicle”. For the same compound, the “GH” value is 490 ng/mL in data set [1] (setting [6]); 17.1 ng/mL in data set [1] (setting [7]); 787 ng/mL in data set [1] (setting [8]); 182 ng/mL in data set [1] (setting [9]); 15 ng/mL in data set [1] (setting [10]); 8 ng/mL in data set [1] (setting [11]). Besides, in data set [1] (setting [12]), the “GH” value was 7 ng/mL. In data set [1] (rats, subcutaneous), the “dose from which GH production was suppressed” value is no less than 1 nmol/kg. For the same compound, the “GH production suppression effect” value in data set [1] (rats, subcutaneous, 3-10 nmol/kg) is listed as 82-99%.

For S1-2C(asialo)-SRIF28 [Example 28], in data set [2], the “intestinal fluid weight compared to the vehicle” value is “increase in the intestinal fluid weight compared to the vehicle”. Further, in data set [4], the “affinity towards SSTR1-SSTR5, folds higher than S1C(disialo)-SRIF28” value is 1.7-2.9 folds. For the same compound, the “GH production suppression effect” value in data set [1] (rats, subcutaneous, 10 nmol/kg) is 70-99%.

With C(disialo)-R-K-SRIF14 [Example 18], in data set [2], the “Intestinal fluid weight” value is 584 ± 95 mg and the “intestinal fluid weight compared to the vehicle” value is on record as “increase in the intestinal fluid weight compared to the vehicle”. Besides, in data set [3], the Amylase is 985 ± 238 IU/L, the CPK was determined as 415 ± 137 IU/L, the LDH was determined as 228 ± 155 IU/L and the “LDH activity compared to the vehicle” value was “low value compared to the vehicle”. Also, the “amylase activity compared to the vehicle” value in data set [3] was “low value compared to the vehicle”. Besides, the “affinity towards SSTR1-SSTR5, folds higher than S1C(disialo)-SRIF28” value in data set [4] is on record as 0.7-2.4 folds. The “GH” value in data set [1] (setting [8]) came to 912 ng/mL. Besides, the “GH” value in data set [1] (setting [9]) came to 291 ng/mL. The “GH” value in data set [1] (setting [11]) was 12 ng/mL. For the same compound, the “GH production suppression effect” value in data set [1] (rats, subcutaneous, 10 nmol/kg) is given as 95-99%.

For “S1C(disialo)•N5C(disialo)-SRIF28 [Example 21]”, the “GH” value in data set [1] (setting [6]) is 776 ng/mL; in data set [1] (setting [7]), 181 ng/mL; in data set [1] (setting [8]) it was 776 ng/mL; in data set [1] (setting [10]), 181 ng/mL. Further, the “GH production suppression activity” value in data set [1] (rats) is “showed GH production suppression activity”.

For A9C(disialo)-SRIF28 [Example 3], the “GH production suppression effect” value in data set [1] (rats, subcutaneous, 10 nmol/kg) is 95-99%.

E12C(disialo)-SRIF28 [Example 4]: in data set [1] (rats, subcutaneous, 10 nmol/kg), the “GH production suppression effect” value is 95-99%.

As for “S1C(disialo)•N5C(disialo)•A9C(disialo)-SRIF28 [Example 25]”, the “GH” value in data set [1] (setting [7]) is recorded as 833 ng/mL; in data set [1] (Table 7, plasma GH, dose 100 nmol/kg subcutaneous, GRF 1 hour after administration, blood 5 min after GRF) it was 151 ng/mL; in data set [1] (setting [12]) it was 151 ng/mL. Further, the “GH production suppression activity” value in data set [1] (rats) is given as “showed GH production suppression activity”.

Consider S1C(asialo)-SRIF28 [Example 27], for which the “GH production suppression effect” value in data set [1] (rats, subcutaneous, 10 nmol/kg) is 70-99%.

As for S1C(disialo(amide))-SRIF28 [Example 60], in data set [1] (rats, subcutaneous, 10 nmol/kg), the “GH production suppression effect” value was 70-99%.

On to “S1C(disialo(aminoethylamide))-SRIF28 [Example 59]”, for which the “GH production suppression effect” value in data set [1] (rats, subcutaneous, 10 nmol/kg) is 70-99%.

Take S1C(disialo(Bn))-SRIF28 [Example 61]: the “GH production suppression effect” value in data set [1] (rats, subcutaneous, 10 nmol/kg) is reported as 95-99%.

For `C[C@@H](O)[C@@H]1NC(=O)[C@H](CCCCN)NC(=O)[C@@H](Cc2c[nH]c3ccccc23)NC(=O)[C@H](Cc2ccccc2)NC(=O)[C@@H](NC(=O)[C@H](N)Cc2ccccc2)CSSC[C@@H](C(=O)N[C@H](CO)[C@@H](C)O)NC1=O` [Octreotide, reference compound], the “intestinal fluid weight compared to the vehicle” value in data set [2] is “confirmed to have this effect”. Further, in data set [3], the “LDH activity compared to the vehicle” value was “low value compared to the vehicle” and the “amylase activity compared to the vehicle” value was “equivalent to the vehicle”.

In the case of “S1C(disialo)-D-Trp22-SRIF28 [Example 15]”, the “GH production suppression effect” value in data set [1] (rats, subcutaneous, 10 nmol/kg) is on record as 95-99%.

On to S1-5C(disialo)-SRIF28 [Example 34], for which, in data set [5] (setting [13]), the AUC came out at 6016 ± 873 nM·min, the C0 was determined as 752 ± 81.4 nM, the mean residence time (MRT) is 0.817 ± 0.101 h and the t1/2 was 1.66 ± 0.233 h. In addition, in data set [5] (subcutaneous), the “AUC for subcutaneous administration, folds of S1C(disialo)-SRIF28” value is 1.8-3.1 folds. In data set [5] (setting [14]), this compound yielded an area under the curve (AUC) of 5524 ± 633 nM·min, a Cmax of 13.5 ± 2.85 nM, an MRT of 6.48 ± 0.833 h and a t1/2 of 4.52 ± 0.645 h. Besides, the “bioavailability (BA)” value in data set [5] (subcutaneous vs intravenous AUC) worked out at 92%. For the same compound, in data set [5] (subcutaneous vs intravenous administration, Table 5A), the BA was 92%. In data set [1] (setting [10]), the “GH” value was determined as 842 ng/mL. Also, the “GH production suppression activity” value in data set [1] (rats) is on record as “showed GH production suppression activity”.

In general, AUC refers to concentration integrated over time. Lower therefore signals low exposure. The MRT is the average time that molecules of a dose stay in the body. The Cmax is the peak of the concentration-time curve.
